Paper PMC5750648, “Study of Statin- and Loratadine-Induced Muscle Pain Mechanisms Using Human Skeletal Muscle Cells” (Pharmaceutics, 2017)
Entries after “also recorded” stand apart in the source; their conditions may differ. Where a name gives a salt, the structure may show the parent alone.

Legend:
[1] = test system: MCT-mediated efflux transport of L-lactic acid (MCT1 and 4); test: Inhibition of L-lactic acid efflux in SkMC (intracellular [14C] L-lactic acid accumulation); type: cell-based, human; settings: for Inhibitory effect on L-lactic acid efflux (in words): 0.25 to 300 µM
Procedure: Assessment of efflux transport. A similar approach was used to measure efflux transport of L-lactic acid. For these experiments, distribution equilibrium of L-lactic acid was reached by adding MES or HEPES (pH 7.0 or 7.4; 1 mL) containing 6 mM [^14C] L-lactic acid (0.2 µCi/mL). After 10 min (to allow L-lactic acid to reach equilibrium), MES or HEPES buffer containing [^14C] L-lactic acid was replaced by L-lactic acid-free buffer for 2.5 min. Transport was stopped by placing culture plates on ice, rapidly aspirating the media and cells were washed 3-times with ice-cold HEPES buffer. Cellular radioactivity levels were determined as previously described in the Method section (Assessment of influx transport).
At the beginning of the experiment (t = 0), medium was replaced by HEPES (pH 7.4; 1 mL) buffer to wash cells. After removing the wash buffer, cells were loaded with [^14C] L-lactic acid (6 mM, 0.2 µCi/mL) in MES or HEPES buffer (pH 7.0 or pH 7.4). Briefly, following pre-incubation of cells in buffer containing [^14C] L-lactic acid for 10 min (to allow L-lactic acid to reach equilibrium), the buffer was replaced by a buffer containing [^14C] L-lactic acid and the potential inhibitor. This mixture was incubated for an additional 3 min in order to allow diffusion of the inhibitor in the cells without perturbing L-lactic acid equilibrium. Then, cells were washed once rapidly with buffer containing the tested inhibitors or vehicle, but without L-lactic acid. In the final step, the tested inhibitors or vehicle were added to the L-lactic acid-free buffer and incubated for 2.5 min as described previously for the assessment of the efflux transport. Culture plates were placed on ice to stop the reaction. Inhibition of L-lactic acid efflux was determined by measuring intracellular [^14C] L-lactic acid concentration.

SkMC = test: Intracellular concentrations of statins and loratadine at the end of inhibition assays (HPLC-UV)
Procedure: Instruments used consisted of a SpectraSystem P4000 pump, a SpectraSystem AS3000 autosampler, a Finnigan SpectraSystem UV6000 ultraviolet detector and a SpectraSystem SN4000 System Controller from Thermo Electron Corporation (San Jose, CA, USA). An Agilent Zorbax Column, Eclipse XDB-C8, 4.6 mm × 150 mm (Agilent, Santa Clara, CA, USA) was used at a temperature of 40 °C. An isocratic mobile phase contained 10 mM ammonium formate pH 3 and acetonitrile with varying proportions, at a flow rate of 1.0 mL/min. Details for mobile phase proportions, internal standards and monitored UV wavelengths are listed in Supplementary Table S1.
After the final incubation, cells were washed twice with PBS 10% methanol and once with PBS alone. The cells were lysed with methanol containing appropriate internal standards for the compounds of interest, then transferred and centrifuged for 10 min at room temperature. The supernatant was transferred to a culture borosilicate glass tube, evaporated and reconstituted in 100 µL of 10 mM ammonium formate pH 3 and acetonitrile (50:50 v/v). A volume of 20 µL per sample was injected. The ChromQuest Version 4.2.34 software was used for data acquisition.

[2] = test system: MCT-mediated efflux transport of L-lactic acid (MCT1 and 4); test: L-lactic acid efflux inhibition after six-day pretreatment of SkMC; type: cell-based, human; settings: inhibitor 300 µM
Procedure: At the beginning of the experiment (t = 0), medium was replaced by HEPES (pH 7.4; 1 mL) buffer to wash cells. […] Then, cells were washed once rapidly with buffer containing the tested inhibitors or vehicle, but without L-lactic acid. […] Culture plates were placed on ice to stop the reaction. Inhibition of L-lactic acid efflux was determined by measuring intracellular [^14C] L-lactic acid concentration.

[3] = test system: L-lactic acid influx transport in SkMC; test: Kinetic parameters of L-lactic acid influx transport in SkMC; type: cell-based, human
Procedure: After differentiation, and before the beginning of the transport experiments, cells were washed, and the medium replaced with HEPES (pH 7.4; 1 mL) buffer. Transport assays, including the pre-incubation period in HEPES, were performed at 37 °C. Assay conditions were previously optimized by standard incubations with L-lactic acid (e.g., incubation times). […] Assessment of influx transport. […] The suspension was passed through 27½ G needle 3-times. […] L-lactic acid concentrations.

[4] = set-up: method as in PMID 16453090; settings: Primo study; cited from earlier work

In the case of CC(C)c1nc(N(C)S(C)(=O)=O)nc(-c2ccc(F)cc2)c1/C=C/[C@@H](O)C[C@@H](O)CC(=O)O [rosuvastatin], the “Inhibitory effect on L-lactic acid efflux (in words)” value ([1]; SkMC) is reported as “No L-lactic acid efflux inhibition; also recorded: No significant inhibitory effect”, the “Inhibitory effect on L-lactic acid transport (in words)” value ([1]; SkMC, pH 7.0) is reported as “no significant inhibitory effect” and the “Uptake of the drug in SkMC” value (SkMC) is reported as “did not have a significant uptake”.
For O=C(CCc1ccc(O)cc1)c1c(O)cc(O)cc1O [phloretin], the “Maximal intracellular L-lactic acid augmentation” value ([1]; SkMC, pH 7.0, 1 to 300 µM tested) was 2.1 fold and the “Maximal intracellular L-lactic acid augmentation” value ([1]; SkMC, pH 7.4, 1 to 300 µM tested) was 2.2 fold.
For CCOC(=O)N1CCC(=C2c3ccc(Cl)cc3CCc3cccnc32)CC1 [Loratadine], the “Effect of pH on intracellular accumulation of the drug” value (SkMC; SkMC, pH 7.0 compared to pH 7.4) was “did not affect”.
With CCC(C)(C)C(=O)O[C@H]1C[C@@H](C)C=C2C=C[C@H](C)[C@H](CC[C@@H](O)C[C@@H](O)CC(=O)O)[C@H]21 [Simvastatin hydroxy acid, simvastatin hydroxyl acid ammonium salt] the “Intracellular L-Lactic Acid Increase (%)” value ([2]; no pretreatment (Control), pH 7.4) was 65%, the “Intracellular L-Lactic Acid Increase (%)” value ([2]; six-day pretreatment 0.033 µM, pH 7.0) was 103% and the “Intracellular L-Lactic Acid Increase (%)” value ([2]; six-day pretreatment 0.033 µM, pH 7.4) was 51%. For the same compound, the “Intracellular L-Lactic Acid Increase (%)” value ([2]; six-day pretreatment 0.1 µM, pH 7.0) was 31%, the “Intracellular L-Lactic Acid Increase (%)” value ([2]; six-day pretreatment 0.1 µM, pH 7.4) was 35% and the “Intracellular lactic acid increase” value ([1]; SkMC (abstract)) was 25–35%. For the same compound, the “Maximal increase of intracellular L-lactic acid” value ([1]; SkMC, 300 µM inhibitor) was 35% and the “Inhibitory effect on L-lactic acid efflux (in words)” value ([1]; SkMC) was “weak inhibitory potency”.
In the case of C[C@H](O)C(=O)O [L-lactic acid, L-lactic acid sodium salt], the Km ([3]; pH 7.0) is reported as 17 mM, the “Vmax of L-lactic acid influx transport” value ([3]; pH 7.0) is reported as 90 nmol/min/mg protein and the Km ([3]; pH 7.4) is reported as 23 mM. The “Vmax of L-lactic acid influx transport” value ([3]; pH 7.4) was 82 nmol/min/mg protein.
For CC(C)c1c(C(=O)Nc2ccccc2)c(-c2ccccc2)c(-c2ccc(F)cc2)n1CC[C@@H](O)C[C@@H](O)CC(=O)O [Atorvastatin], the “Rate of patients experiencing muscular discomfort” value [4] is given as 14.9%.
